Experimental data from patent publication US20140342065A1 (priority 2012, published 2014).

What was measured:
bacteria or yeast = settings: exposed one day (NaHS 50 mg, gas 40 ppm or saturated water 0.04% 1 ml), then sealed two months at room temperature
From the text: Control counterparts were also kept at room temperature within a closed environment. Then, the plates were removed from these environments, sealed and placed at room temperature for two months.

[1] = test system: freshly cut yams, sweet potatoes and potatoes; experiment: NaHS solution fumigation of freshly cut yams, sweet potatoes and potatoes
Method: (§1) Aqueous NaHS solutions (0.25-3.5 mmol/L) could release H2S gas (10^−12˜10^−10 mol/L). H2S rapidly, reached to the highest levels within several minutes and maintained a constant concentration. […] The NaHS solution was renewed every 48 or 72 hours. The NaHS solution was placed in a sealed container separated by a partition board with pores on it. The fresh cut vegetables including Broccoli, Lettuce, Lotus Root, Yam, Pumpkin, Sweet Potato, Potato, etc, and the fresh cut fruits Apple, Pear, Kiwi Fruit, Tomato, Hami Melon, and Peach were placed above the board, while the NaHS solution was placed under the board. Therefore, the fresh cut vegetables and fruits were fumigated with H2S gas released from NaHS in the solution.
The control freshly cut yams, sweet potatoes and potatoes that were treated with water (0.0 mmol/L NaHS) underwent browning at 10˜12 hours, while the browning time of freshly cut yams, sweet potatoes and potatoes treated with 0.25-1.75 mmol/L NaHS solution was postponed by about 15-20 hours.

[2] = test system: freshly cut chips of cantaloupe; experiment: NaHS solution fumigation of freshly cut chips of cantaloupe
Method: as §1
The control freshly cut chips of cantaloupe that were treated with water (0.0 mmol/L NaHS) lost their color and became brown, while the freshness of freshly cut chips of cantaloupe treated with 0.05 mmol/L-1.5 mmol/L NaHS solution was prolonged by 8-12 hours.

freshly cut tomatoes = experiment: NaHS solution fumigation of freshly cut tomatoes at breaker stage
Method: as §1
The control freshly cut tomatoes that were treated with water (0.0 mmol/L NaHS) gradually turned red, and reached 100% maturation on day 5, while the maturation time of freshly cut tomatoes treated with 0.5 mmol/L-3.5 mmol/L NaHS solution was prolonged by 4-5 days.

[3] = Release of H2S gas from aqueous NaHS solutions; assay type: physicochemical; settings: aqueous NaHS solutions 0.25-3.5 mmol/L
Method: as §1

S [NaHS, sodium hydrosulfide]
growth of bacteria and yeast on agar plates (bacteria or yeast): no growth was evident | browning time postponed by ([1]; 0.25-1.75 mmol/L NaHS, control browning at 10˜12 hours): 15 to 20 h | browning time postponed by ([1]; 1.0-1.5 mmol/L NaHS (most optimal)): 16 to 20 h | freshness prolonged by ([2]; 0.05 mmol/L-1.5 mmol/L NaHS): 8 to 12 h | freshness prolonged by ([2]; 0.9 mmol/L-1.0 mmol/L NaHS (best)): 12 h | maturation time prolonged by (freshly cut tomatoes; 0.5 mmol/L-3.5 mmol/L NaHS, control 100% maturation on day 5): 4 to 5 days | senescence time prolonged by (freshly cut tomatoes; 1.5 mmol/L-2.0 mmol/L NaHS (best)): 5 days | H2S gas released [3]: 10^−12˜10^−10 mol/L
